Measured values published in US20260215426A1, “HERBICIDAL COMPOSITIONS” (SYNGENTA CROP PROTECTION AG, priority 2022, published 2026).

Key:
Assay type in all cases: in vivo
[1] = tested on: Conyza canadensis (ERICA); test: Post-emergence glasshouse efficacy against Conyza canadensis; details: 8 cm rosette, 14 days
Source text: (§1) When active ingredients are combined, the activity to be expected (E) for any given active ingredient combination obeys the so-called Colby Formula and can be calculated as follows (Colby, S. R., Calculating synergistic and antagonistic responses of herbicide combination, Weeds, Vol. 15, pages 20-22; 1967): • ppm=milligrams of active ingredient (a.i.) per liter • X=% action by first active ingredient using p ppm of the active ingredient • Y=% action by second active ingredient sing q ppm of the active ingredient.
(§2) According to Colby, the expected action of active ingredients A+B using p+q ppm of active ingredient is represented by the following formula: […]
(§3) If the action actually observed (O) is greater than the expected action E then the action of the combination is super-additive, i.e. there is a synergistic effect. In mathematical terms, synergism corresponds to a positive value for the difference of (O-E). In the case of purely complementary addition of activities (expected activity), said difference (O-E) is zero. A negative value of said difference (O-E) signals a loss of activity compared to the expected activity.
(§4) Seeds of a variety of test species are sown in standard soil in pots (Echinochloa crus-galli (ECHCG), Conyza canadensis (ERICA), Amaranthus palmeri (AMAPA), Alopecurus myosuroides (ALOMY), Lolium perenne (LOLPE), and Setaria faberi (SETFA)), and cultivated under controlled conditions in a glasshouse (at 24/16° C., day/night; 14 hours light; 65% humidity), the plants are sprayed with an aqueous spray solution derived from the dissolution of the test compound or composition in acetone and IF50 (11.12% Emulsogen EL360 TM+44.44% N-methylpyrrolidone+44.44% Dowanol DPM glycol ether) which was then diluted to the required concentration using 0.2% Genapol XO80 (CAS No. 9043-30-5) in water as the diluent. Test compounds or compositions are applied at the rates stated. The test plants are then grown in a glasshouse under controlled conditions in a glasshouse (at 24/16° C., day/night; 14 hours light; 65% humidity) and watered twice daily. After 14 days, the test is evaluated for the percentage damage caused to the plant (100=total damage to plant; 0=no damage to plant), and the result are shown below in table B1 to B6.

[2] = tested on: Amaranthus palmeri (AMAPA); test: Post-emergence glasshouse efficacy against Amaranthus palmeri; details: 7-8 true leaves, 14 days
Source text: as §1, §2, §3, §4

[3] = tested on: Lolium perenne (LOLPE); test: Post-emergence glasshouse efficacy against Lolium perenne; details: 14 days
Source text: as §1, §2, §3, §4

[4] = tested on: Alopecurus myosuroides (ALOMY); test: Post-emergence glasshouse efficacy against Alopecurus myosuroides; details: 14 days
Source text: as §1, §2, §3, §4

[5] = tested on: Echinochloa crus-galli (ECHCG); test: Post-emergence glasshouse efficacy against Echinochloa crus-galli; details: 4 true leaves, 14 days
Source text: as §1, §2, §3, §4

[6] = tested on: Setaria faberi (SETFA); test: Post-emergence glasshouse efficacy against Setaria faberi; details: 14 days, alone 3.75 g/Ha
Source text: as §1, §2
as §3, with “activity. […]” for “activity.”

**Q.** For bicyclopyrone, which “Observed Activity (%)” value ([1]; alone 15.0 g/Ha) is on record?
**A.** 65.0%

**Q.** What about the “Observed Activity (%)” value ([1]; alone 30.0 g/Ha) of the same compound?
**A.** 71.7%

**Q.** And the “Observed Activity (%)” value ([1]; alone 60.0 g/Ha)?
**A.** 70.0%

**Q.** What about the “Observed Activity (%)” value ([2]; alone 3.75 g/Ha) of the same compound?
**A.** 0.0%

**Q.** What about the “Observed Activity (%)” value ([2]; alone 7.5 g/Ha) of the same compound?
**A.** 30.0%

**Q.** And the “Observed Activity (%)” value ([2]; alone 15.0 g/Ha)?
**A.** 45.0%

**Q.** What about the “Observed Activity (%)” value ([2]; alone 30.0 g/Ha) of the same compound?
**A.** 18.3%

**Q.** What about the “Observed Activity (%)” value ([3]; alone 3.75 g/Ha) of the same compound?
**A.** 0.0%

**Q.** And the “Observed Activity (%)” value ([3]; alone 7.5 g/Ha)?
**A.** 10.0%

**Q.** And the “Observed Activity (%)” value ([3]; alone 15.0 g/Ha)?
**A.** 25.0%

**Q.** What about the “Observed Activity (%)” value ([3]; alone 30.0 g/Ha) of the same compound?
**A.** 47.5%

**Q.** And the “Observed Activity (%)” value ([4]; alone 7.5 g/Ha)?
**A.** 47.5%

**Q.** And the “Observed Activity (%)” value ([4]; alone 15.0 g/Ha)?
**A.** 60.0%

**Q.** And the “Observed Activity (%)” value ([4]; alone 30.0 g/Ha)?
**A.** 60.0%

**Q.** And the “Observed Activity (%)” value ([5]; alone 3.75 g/Ha)?
**A.** 21.7%

**Q.** And the “Observed Activity (%)” value ([5]; alone 7.5 g/Ha)?
**A.** 46.7%

**Q.** What about the “Observed Activity (%)” value ([5]; alone 15.0 g/Ha) of the same compound?
**A.** 56.7%

**Q.** And the “Observed Activity (%)” value ([5]; alone 30.0 g/Ha)?
**A.** 61.7%

**Q.** And the “Observed Activity (%)” value ([5]; alone 60.0 g/Ha)?
**A.** 63.3%

**Q.** And the “Observed Activity (%)” value [6]?
**A.** 22.5%

**Q.** What does the source list for `CCOC(=O)C1(C)CC(c2cc(-n3c(=O)cc(C(F)(F)F)n(C)c3=O)c(F)cc2Cl)=NO1` (stereo not drawn) [Compound (Ia)]?
**A.** inhibition at 1.875 g/ha ([1]; Erigeron canadensis, 336 h, alone 1.875 g/Ha, read-out: Observed Activity (%)): 20%; inhibition at 3.75 g/ha ([1]; Erigeron canadensis, 336 h, alone 3.75 g/Ha, read-out: Observed Activity (%)): 21.7%; inhibition at 7.5 g/ha ([1]; Erigeron canadensis, 336 h, alone 7.5 g/Ha, read-out: Observed Activity (%)): 48.3%; inhibition at 0.9375 g/ha ([2]; Amaranthus palmeri, 336 h, alone 0.9375 g/Ha, read-out: Observed Activity (%)): 0%; inhibition at 1.875 g/ha ([2]; Amaranthus palmeri, 336 h, alone 1.875 g/Ha, read-out: Observed Activity (%)): 0%; inhibition at 3.75 g/ha ([2]; Amaranthus palmeri, 336 h, alone 3.75 g/Ha, read-out: Observed Activity (%)): 36.7%; inhibition at 3.75 g/ha ([3]; Lolium perenne, 336 h, alone 3.75 g/Ha, read-out: Observed Activity (%)): 12.5%; inhibition at 7.5 g/ha ([3]; Lolium perenne, 336 h, alone 7.5 g/Ha, read-out: Observed Activity (%)): 42.5%; inhibition at 15 g/ha ([3]; Lolium perenne, 336 h, alone 15.0 g/Ha, read-out: Observed Activity (%)): 50%; inhibition at 30 g/ha ([3]; Lolium perenne, 336 h, alone 30.0 g/Ha, read-out: Observed Activity (%)): 93.5%; inhibition at 30 g/ha ([4]; Alopecurus myosuroides, 336 h, alone 30.0 g/Ha, read-out: Observed Activity (%)): 67.5%; inhibition at 60 g/ha ([4]; Alopecurus myosuroides, 336 h, alone 60.0 g/Ha, read-out: Observed Activity (%)): 97.5%; inhibition at 1.875 g/ha ([5]; Echinochloa crus-galli, 336 h, alone 1.875 g/Ha, read-out: Observed Activity (%)): 6.7%; inhibition at 3.75 g/ha ([5]; Echinochloa crus-galli, 336 h, alone 3.75 g/Ha, read-out: Observed Activity (%)): 29.3%; inhibition at 7.5 g/ha ([5]; Echinochloa crus-galli, 336 h, alone 7.5 g/Ha, read-out: Observed Activity (%)): 73.3%; inhibition at 3.75 g/ha ([6]; Setaria faberi, 336 h, read-out: Observed Activity (%)): 67.5%
